Measured values as given in PubChem BioAssay (NCI).
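Step 1: Grow cells in 96-well plates. Step 2: Expose to compound for 48 hours at 5 concentrations. Step 3: Interpolate endpoints linearly; if unreached, use highest concentration. GI50 is the concentration that inhibits growth by half. TGI denotes the concentration required for complete inhibition of growth.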

Experiments:
Assay in all cases: NCI anticancer screen, dose series, 48 h
HCC-2998 colon = test system: HCC-2998 colon
HT29 colon = test system: HT29 colon
COLO 205 colon = test system: COLO 205 colon
OVCAR-4 ovarian = test system: OVCAR-4 ovarian
U251 CNS = test system: U251 CNS
786-0 renal = test system: 786-0 renal
IGROV1 ovarian = test system: IGROV1 ovarian
NCI-H522 lung = test system: NCI-H522 lung
LOX IMVI melanoma = test system: LOX IMVI melanoma
HOP-92 NSCLC = test system: HOP-92 NSCLC
SR leukemia = test system: SR leukemia
HL-60(TB) leukemia = test system: HL-60(TB) leukemia
TK-10 renal = test system: TK-10 renal
K-562 leukemia = test system: K-562 leukemia
SF-268 CNS = test system: SF-268 CNS
DU-145 prostate = test system: DU-145 prostate
RPMI-8226 leukemia = test system: RPMI-8226 leukemia
NCI/ADR-RES ovarian = test system: NCI/ADR-RES ovarian
HS 578T breast = test system: HS 578T breast
UACC-257 melanoma = test system: UACC-257 melanoma
A498 renal = test system: A498 renal
OVCAR-8 ovarian = test system: OVCAR-8 ovarian
MALME-3M melanoma = test system: MALME-3M melanoma
M14 melanoma = test system: M14 melanoma
PC-3 prostate = test system: PC-3 prostate
SK-MEL-5 melanoma = test system: SK-MEL-5 melanoma
MCF7 breast = test system: MCF7 breast
CAKI-1 renal = test system: CAKI-1 renal
EKVX NSCLC = test system: EKVX NSCLC
BT-549 breast = test system: BT-549 breast
UACC-62 melanoma = test system: UACC-62 melanoma
SW-620 colon = test system: SW-620 colon
HOP-62 NSCLC = test system: HOP-62 NSCLC
SN12C renal = test system: SN12C renal
A549 NSCLC = test system: A549 NSCLC
MDA-MB-231 breast = test system: MDA-MB-231 breast
MDA-MB-435 = test system: MDA-MB-435
NCI-H226 lung = test system: NCI-H226 lung
SF-295 CNS = test system: SF-295 CNS
HCT-15 colon = test system: HCT-15 colon
RXF 393 renal = test system: RXF 393 renal
NCI-H23 lung = test system: NCI-H23 lung
SF-539 CNS = test system: SF-539 CNS
MOLT-4 leukemia = test system: MOLT-4 leukemia
T-47D breast = test system: T-47D breast
SNB-75 CNS = test system: SNB-75 CNS
UO-31 renal = test system: UO-31 renal
SK-OV-3 ovarian = test system: SK-OV-3 ovarian
SK-MEL-28 melanoma = test system: SK-MEL-28 melanoma
ACHN renal = test system: ACHN renal
CCRF-CEM leukemia = test system: CCRF-CEM leukemia
SNB-19 CNS = test system: SNB-19 CNS
OVCAR-5 ovarian = test system: OVCAR-5 ovarian
SK-MEL-2 melanoma = test system: SK-MEL-2 melanoma
NCI-H460 lung = test system: NCI-H460 lung
KM12 colon = test system: KM12 colon

Question: What does the source list for CNC[C@@H](NC(=O)c1ccc(-c2nc([C@H]3CC[C@H](O)[C@@H](F)C3)cnc2N)cc1F)c1cc(F)cc(Br)c1?
Answer: GI50 (HCC-2998 colon): 17.3 µM; TGI (HCC-2998 colon): 31.8 µM; GI50 (HT29 colon): 13.2 µM; TGI (HT29 colon): 27 µM; GI50 (COLO 205 colon): 13 µM; TGI (COLO 205 colon): 27 µM; GI50 (OVCAR-4 ovarian): 18.1 µM; TGI (OVCAR-4 ovarian): 50.2 µM; GI50 (U251 CNS): 14.6 µM; TGI (U251 CNS): 32.4 µM; GI50 (786-0 renal): 14 µM; TGI (786-0 renal): 29.5 µM; GI50 (IGROV1 ovarian): 16 µM; TGI (IGROV1 ovarian): 34 µM; GI50 (NCI-H522 lung): 16.6 µM; TGI (NCI-H522 lung): 32.4 µM; GI50 (LOX IMVI melanoma): 15 µM; TGI (LOX IMVI melanoma): 29.4 µM; GI50 (HOP-92 NSCLC): 2.57 µM; TGI (HOP-92 NSCLC): 16.5 µM; GI50 (SR leukemia): 13.1 µM; TGI (SR leukemia): 35.3 µM; GI50 (HL-60(TB) leukemia): 13.6 µM; TGI (HL-60(TB) leukemia): 34.2 µM; GI50 (TK-10 renal): 12.2 µM; TGI (TK-10 renal): 28.9 µM; GI50 (K-562 leukemia): 13.6 µM; TGI (K-562 leukemia): 38.2 µM; GI50 (SF-268 CNS): 12.6 µM; TGI (SF-268 CNS): 30.2 µM; GI50 (DU-145 prostate): 17.2 µM; TGI (DU-145 prostate): 32.8 µM; GI50 (RPMI-8226 leukemia): 11.2 µM; TGI (RPMI-8226 leukemia): 30.8 µM; GI50 (NCI/ADR-RES ovarian): 38.9 µM; TGI (NCI/ADR-RES ovarian): > 100 µM; GI50 (HS 578T breast): 12.6 µM; TGI (HS 578T breast): 39.4 µM; GI50 (UACC-257 melanoma): 15 µM; TGI (UACC-257 melanoma): 30.5 µM; GI50 (A498 renal): 13.1 µM; TGI (A498 renal): 26.7 µM; GI50 (OVCAR-8 ovarian): 17.3 µM; TGI (OVCAR-8 ovarian): 35 µM; GI50 (MALME-3M melanoma): 13.9 µM; TGI (MALME-3M melanoma): 28.9 µM; GI50 (M14 melanoma): 15.2 µM; TGI (M14 melanoma): 31.1 µM; GI50 (PC-3 prostate): 12.3 µM; TGI (PC-3 prostate): 25.5 µM; GI50 (SK-MEL-5 melanoma): 15.2 µM; TGI (SK-MEL-5 melanoma): 29.3 µM; GI50 (MCF7 breast): 18.3 µM; TGI (MCF7 breast): 34.5 µM; GI50 (CAKI-1 renal): 11.6 µM; TGI (CAKI-1 renal): 28.3 µM; GI50 (EKVX NSCLC): 16.1 µM; TGI (EKVX NSCLC): 33.2 µM; GI50 (BT-549 breast): 11.2 µM; TGI (BT-549 breast): 25.3 µM; GI50 (UACC-62 melanoma): 17.4 µM; TGI (UACC-62 melanoma): 32.8 µM; GI50 (SW-620 colon): 18.4 µM; TGI (SW-620 colon): 34.5 µM; GI50 (HOP-62 NSCLC): 14.3 µM; TGI (HOP-62 NSCLC): 28.7 µM; GI50 (SN12C renal): 16.5 µM; TGI (SN12C renal): 32.9 µM; GI50 (A549 NSCLC): 14.3 µM; TGI (A549 NSCLC): 30.1 µM; GI50 (MDA-MB-231 breast): 12.7 µM; TGI (MDA-MB-231 breast): 27.3 µM; GI50 (MDA-MB-435): 16.1 µM; TGI (MDA-MB-435): 30.9 µM; GI50 (NCI-H226 lung): 16.5 µM; TGI (NCI-H226 lung): 35.3 µM; GI50 (SF-295 CNS): 17.1 µM; TGI (SF-295 CNS): 32.5 µM; GI50 (HCT-15 colon): 16.5 µM; TGI (HCT-15 colon): 31.8 µM; GI50 (RXF 393 renal): 6.28 µM; TGI (RXF 393 renal): 21.1 µM; GI50 (NCI-H23 lung): 17.8 µM; TGI (NCI-H23 lung): 35.3 µM; GI50 (SF-539 CNS): 15.2 µM; TGI (SF-539 CNS): 29.1 µM; GI50 (MOLT-4 leukemia): 15 µM; TGI (MOLT-4 leukemia): 49.2 µM; GI50 (T-47D breast): 18.3 µM; TGI (T-47D breast): 36.2 µM; GI50 (SNB-75 CNS): 4.09 µM; TGI (SNB-75 CNS): 23.5 µM; GI50 (UO-31 renal): 12.3 µM; TGI (UO-31 renal): 26.4 µM; GI50 (SK-OV-3 ovarian): 17 µM; TGI (SK-OV-3 ovarian): 31.3 µM; GI50 (SK-MEL-28 melanoma): 17 µM; TGI (SK-MEL-28 melanoma): 32.4 µM; GI50 (ACHN renal): 15 µM; TGI (ACHN renal): 29.1 µM; GI50 (CCRF-CEM leukemia): 16 µM; TGI (CCRF-CEM leukemia): 39.1 µM; GI50 (SNB-19 CNS): 17.7 µM; TGI (SNB-19 CNS): 36 µM; GI50 (OVCAR-5 ovarian): 16.4 µM; TGI (OVCAR-5 ovarian): 40.2 µM; GI50 (SK-MEL-2 melanoma): 14 µM; TGI (SK-MEL-2 melanoma): 28.7 µM; GI50 (NCI-H460 lung): 17.7 µM; TGI (NCI-H460 lung): 33.5 µM; GI50 (KM12 colon): 16 µM; TGI (KM12 colon): 31.3 µM
